This test deals with GST-tagged truncated human mutant G2019S LRRK2 (Homo sapiens (Human), UniProt Q5S007, G2019S). The test is described as follows: LRRK2 Km ATP LanthaScreen Assay. Format: biochemical. The note with it: 134 μM ATP (Km ATP); fluorescein-labeled LRRKtide substrate; mean IC50 values. As for the experimental part: Unless otherwise noted, all LRRK2 IC50 data presented in tables refers to the LRRK2 Km ATP LanthaScreen™ Assay that is described in the Biological Assay section.
Sequence of GST-tagged truncated human mutant G2019S LRRK2 (Q5S007 970-2527 G2019S): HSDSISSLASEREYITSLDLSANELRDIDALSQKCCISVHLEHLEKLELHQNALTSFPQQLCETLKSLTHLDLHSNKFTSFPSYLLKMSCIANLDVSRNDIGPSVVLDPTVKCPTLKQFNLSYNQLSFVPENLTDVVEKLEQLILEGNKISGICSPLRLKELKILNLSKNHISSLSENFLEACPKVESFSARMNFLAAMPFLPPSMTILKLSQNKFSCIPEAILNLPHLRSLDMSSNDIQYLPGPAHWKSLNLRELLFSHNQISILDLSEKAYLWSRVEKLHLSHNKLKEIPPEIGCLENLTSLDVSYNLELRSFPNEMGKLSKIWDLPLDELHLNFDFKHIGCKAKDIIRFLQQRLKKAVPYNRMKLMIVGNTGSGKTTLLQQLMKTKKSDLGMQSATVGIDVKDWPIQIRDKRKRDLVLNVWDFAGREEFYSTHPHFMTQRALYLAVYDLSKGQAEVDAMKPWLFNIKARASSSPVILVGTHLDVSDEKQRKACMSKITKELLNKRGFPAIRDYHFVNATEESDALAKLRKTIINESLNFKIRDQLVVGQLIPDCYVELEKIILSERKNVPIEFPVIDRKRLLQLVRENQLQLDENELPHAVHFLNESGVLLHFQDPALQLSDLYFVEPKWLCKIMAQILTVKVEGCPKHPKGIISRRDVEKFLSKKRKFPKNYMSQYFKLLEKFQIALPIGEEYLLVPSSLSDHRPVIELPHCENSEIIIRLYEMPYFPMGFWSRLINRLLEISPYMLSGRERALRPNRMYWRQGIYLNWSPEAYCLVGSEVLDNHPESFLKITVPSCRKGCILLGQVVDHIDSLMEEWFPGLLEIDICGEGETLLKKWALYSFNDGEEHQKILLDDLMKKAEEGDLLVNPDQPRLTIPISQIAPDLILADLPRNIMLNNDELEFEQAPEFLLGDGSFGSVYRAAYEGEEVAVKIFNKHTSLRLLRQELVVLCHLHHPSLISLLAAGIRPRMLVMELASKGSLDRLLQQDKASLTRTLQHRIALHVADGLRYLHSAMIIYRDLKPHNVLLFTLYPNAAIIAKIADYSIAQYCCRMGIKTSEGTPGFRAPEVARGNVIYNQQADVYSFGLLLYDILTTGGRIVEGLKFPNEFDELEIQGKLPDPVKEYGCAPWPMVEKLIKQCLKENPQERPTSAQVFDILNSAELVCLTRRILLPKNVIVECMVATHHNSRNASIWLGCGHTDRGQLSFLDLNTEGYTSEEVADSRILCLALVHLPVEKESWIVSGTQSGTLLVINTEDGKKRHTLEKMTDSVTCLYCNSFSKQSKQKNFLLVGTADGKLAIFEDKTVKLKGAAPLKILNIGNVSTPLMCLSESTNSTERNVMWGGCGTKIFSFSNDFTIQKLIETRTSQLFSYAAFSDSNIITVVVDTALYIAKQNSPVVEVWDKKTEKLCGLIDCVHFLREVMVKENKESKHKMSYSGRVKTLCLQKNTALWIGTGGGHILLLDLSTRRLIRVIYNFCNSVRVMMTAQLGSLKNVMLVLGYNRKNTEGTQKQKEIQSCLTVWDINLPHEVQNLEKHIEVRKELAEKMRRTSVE
Biological Assay: LRRK2 Km ATP LanthaScreen™ Assay
The LRRK2 kinase activity reported herein as IC50 values was determined with LanthaScreen™ technology from Life Technologies Corporation (Carlsbad, Calif.) using GST-tagged truncated human mutant G2019S LRRK2 in the presence of the fluorescein-labeled peptide substrate LRRKtide, also from Life Technologies. The data presented for the Km ATP LanthaScreen™ Assay represents mean IC50 values based on several test results and may have reasonable deviations depending on the specific conditions and reagents used. Assays were performed in the presence of 134 μM ATP (Km ATP). Upon completion, the assay was stopped and phosphorylated substrate detected with a terbium (Tb)-labeled anti-pERM antibody (cat. no. PV4898). The compound dose response was prepared by diluting a 10 mM stock of compound to a maximum concentration of 9.99 μM in 100% dimethylsulfoxide followed by custom fold serial dilution in dimethylsulfoxide nine times. Twenty nanoliters of each dilution was spotted via a Labcyte Echo onto a 384-well black-sided plate (Corning 3575) followed by 15 μl of a 1.25 nM enzyme solution in 1× assay buffer (50 mM Tris pH 8.5, 10 mM MgCl2, 0.01% Brij-35, 1 mM EGTA, 2 mM dithiothreitol, 0.05 mM sodium orthovanadate) Following a 15-minute incubation at room temperature, the kinase reaction was started with the addition of 5 μl of 400 nM fluorescein-labeled LRRKtide peptide substrate and 134 μM ATP solution in 1× assay buffer. The reaction was allowed to progress at ambient temperature for 90 minutes. The reaction was then stopped by the addition of 20 μl of TR-FRET Dilution Buffer (Life Technologies, Carlsbad, Calif.) containing 2 nM Tb-labeled anti-phospho LRRKtide antibody and 10 mM EDTA (Life Technologies, Carlsbad, Calif.). After an incubation of 1 hour at room temperature, the plate was read on an EnVision multimode plate reader (Perkin Elmer, Waltham, Mass.) with an excitation wavelength of 337 nm (Laser) and a reading emission at both 520 and 495 nm. Compound IC50s were interpolated from nonlinear regression best fits of the log of the final compound concentration, plotted as a function of the 520/495-nm emission ratio using Activity base. Abase uses a 4 parameter (4P) logistic fit based on the Levenberg-Marquardt algorithm.
Turning to `CC1C(C(C)(C)O)CCN1c1cc(-n2ncc3ccc(C4(C#N)CC5(CC5)C4)cc32)ncn1` (single isomer, unassigned) [Example 36, 5-(1-(6-(3-(2-hydroxypropan-2-yl)-2-methylpyrrolidin-1-yl)pyrimidin-4-yl)-1H-indazol-6-yl)spiro[2.3]hexane-5-carbonitrile], half-maximal inhibition (IC50) required 3.2 nM.
Under `Cc1nc(N2CC[C@@H](C(C)(C)O)C2)cc(-n2ncc3ccc(C4(C#N)CC5(CC5)C4)cc32)n1` [Example 10, (R)-5-(1-(6-(3-(2-hydroxypropan-2-yl)pyrrolidin-1-yl)-2-methylpyrimidin-4-yl)-1H-indazol-6-yl)spiro[2.3]hexane-5-carbonitrile] stands 3.8 nM.
Compound `CC(C)(O)C12CC(C1)N(c1cc(-n3ncc4ccc(C5(C#N)CC6(CC6)C5)cc43)ncn1)C2` [Example 12, 5-(1-(6-(4-(2-hydroxypropan-2-yl)-2-azabicyclo[2.1.1]hexan-2-yl)pyrimidin-4-yl)-1H-indazol-6-yl)spiro[2.3]hexane-5-carbonitrile] registered a half-maximal inhibitory concentration (IC50) of 2.6 nM.
Under `Cc1nc(N2CC3(C(C)(C)O)CC2C3)cc(-n2ncc3ccc(C4(C#N)CC5(CC5)C4)cc32)n1` [Example 5, 5-(1-(6-(4-(2-hydroxypropan-2-yl)-2-azabicyclo[2.1.1]hexan-2-yl)-2-methylpyrimidin-4-yl)-1H-indazol-6-yl)spiro[2.3]hexane-5-carbonitrile] stands 12.3 nM.
Under `N#CC1(c2ccc3cnn(-c4cc(N5CCN6CCOC[C@@H]6C5)ncn4)c3c2)CC2(CC2)C1` [Example 45, (S)-5-(1-(6-(hexahydropyrazino[2,1-c][1,4]oxazin-8(1H)-yl)pyrimidin-4-yl)-1H-indazol-6-yl)spiro[2.3]hexane-5-carbonitrile] stands 2 nM; under `CC1C2(CC2)CC1(C#N)c1ccc2cnn(-c3cc(N4CCN5CCOC[C@@H]5C4)ncn3)c2c1` (single isomer, unassigned) [Example 55], 34 nM; under `N#CC1(c2ccc3cnn(-c4cc(N5CCC(C6COC6)CC5)ncn4)c3c2)CC2(CC2)C1` [Example 44, 5-(1-(6-(4-(oxetan-3-yl)piperidin-1-yl)pyrimidin-4-yl)-1H-indazol-6-yl)spiro[2.3]hexane-5-carbonitrile], 5 nM.
In the case of `CNc1nc(N2CC3(C(C)(C)O)CC2C3)cc(-n2ncc3ccc(C4(C#N)CC5(CC5)C4)cc32)n1` [Example 29, 5-(1-(6-(4-(2-hydroxypropan-2-yl)-2-azabicyclo[2.1.1]hexan-2-yl)-2-(methylamino)pyrimidin-4-yl)-1H-indazol-6-yl)spiro[2.3]hexane-5-carbonitrile] it was 16.7 nM; in that of `CC1CC12CC(C#N)(c1ccc3cnn(-c4cc(N5CCN6CCOC[C@@H]6C5)ncn4)c3c1)C2` (single isomer, unassigned) [Example 50], 4.4 nM; in that of `CC(C)(O)C1CN(c2cc(-n3ncc4ccc(C5(C#N)CC6(CC6)C5)cc43)ncn2)CC1F` (single isomer, unassigned) [Example 23, 5-(1-(6-(3-fluoro-4-(2-hydroxypropan-2-yl)pyrrolidin-1-yl)pyrimidin-4-yl)-1H-indazol-6-yl)spiro[2.3]hexane-5-carbonitrile], 4.6 nM.
In turn, `COCc1nc(N2CC3(C(C)(C)O)CC2C3)cc(-n2ncc3ccc(C4(C#N)CC5(CC5)C4)cc32)n1` [Example 20, 5-(1-(6-(4-(2-hydroxypropan-2-yl)-2-azabicyclo[2.1.1]hexan-2-yl)-2-(methoxy-methyl)pyrimidin-4-yl)-1H-indazol-6-yl)spiro[2.3]hexane-5-carbonitrile] gave an IC50 of 16.2 nM.
Under `CC(C)(O)[C@@H]1CN(c2cc(-n3ncc4ccc(C5(C#N)CC6(CC6)C5)cc43)ncn2)CCO1` [Example 43, (S)-5-(1-(6-(2-(2-hydroxypropan-2-yl)morpholino)pyrimidin-4-yl)-1H-indazol-6-yl)spiro[2.3]hexane-5-carbonitrile] stands 0.9 nM.
Under `CC1(O)CN(c2cc(-n3ncc4ccc(C5(C#N)CC6(CC6)C5)cc43)ncn2)C1` [Example 25, 5-(1-(6-(3-hydroxy-3-methylazetidin-1-yl)pyrimidin-4-yl)-1H-indazol-6-yl)spiro[2.3]hexane-5-carbonitrile] stands 2.9 nM; under `Cc1nc(N2CCN3CCOC[C@@H]3C2)cc(-n2ncc3ccc(C4(C#N)CC5(CC5)C4)cc32)n1` [Example 47, (S)-5-(1-(6-(hexahydropyrazino[2,1-c][1,4]oxazin-8(1H)-yl)-2-methylpyrimidin-4-yl)-1H-indazol-6-yl)spiro[2.3]hexane-5-carbonitrile], 3.2 nM.
Under `CN1CCN(c2cc(-n3ncc4ccc(C5(C#N)CC6(CC6)C5)cc43)ncn2)CC1CO` (single isomer, unassigned) [Example 16, 5-(1-(6-(3-(hydroxymethyl)-4-methylpiperazin-1-yl)pyrimidin-4-yl)-1H-indazol-6-yl)spiro[2.3]hexane-5-carbonitrile] stands 1.2 nM; under `Cc1nc(N2CC[C@H](O)[C@@H](F)C2)cc(-n2ncc3ccc(C4(C#N)CC5(CC5)C4)cc32)n1` [Example 2, 5-(1-(6-((3S,4S)-3-fluoro-4-hydroxypiperidin-1-yl)-2-methylpyrimidin-4-yl)-1H-indazol-6-yl)spiro[2.3]hexane-5-carbonitrile], 5.1 nM.
Compound `COc1nc(N2CC3(C(C)(C)O)CC2C3)cc(-n2ncc3ccc(C4(C#N)CC5(CC5)C4)cc32)n1` [Example 30, 5-(1-(6-(4-(2-hydroxypropan-2-yl)-2-azabicyclo[2.1.1]hexan-2-yl)-2-methoxypyrimidin-4-yl)-1H-indazol-6-yl)spiro[2.3]hexane-5-carbonitrile] registered an IC50 of 12.3 nM.
In the case of `N#CC1(c2cc3c(cn2)cnn3-c2cc(N3CCN4CCOC[C@@H]4C3)ncn2)CC2(CC2)C1` [Example 49, (S)-5-(1-(6-(hexahydropyrazino[2,1-c][1,4]oxazin-8(1H)-yl)pyrimidin-4-yl)-1H-pyrazolo[4,3-c]pyridin-6-yl)spiro[2.3]hexane-5-carbonitrile] it was 8.8 nM; in that of `N#CC1(c2ccc3cnn(-c4cc(N5CCO[C@H](CO)C5)ncn4)c3c2)CC2(CC2)C1` [Example 14, (S)-5-(1-(6-(2-(hydroxy-methyl)morpholino)pyrimidin-4-yl)-1H-indazol-6-yl)spiro[2.3]hexane-5-carbonitrile], 2.9 nM.
In the case of `CN1CCOC2CN(c3cc(-n4ncc5ccc(C6(C#N)CC7(CC7)C6)cc54)ncn3)CC21` (single isomer, unassigned) [Example 41] it was 1.2 nM.
In the case of `Cc1nc(N2CCN3CCOC[C@@H]3C2)cc(-n2ncc3cnc(C4(C#N)CC5(CC5)C4)cc32)n1` [Example 48, (S)-5-(1-(6-(hexahydropyrazino[2,1-c][1,4]oxazin-8(1H)-yl)-2-methylpyrimidin-4-yl)-1H-pyrazolo[4,3-c]pyridin-6-yl)spiro[2.3]hexane-5-carbonitrile] it was 20.2 nM.
On to `CC1C2(CC2)CC1(C#N)c1ccc2cnn(-c3cc(N4CCN5CCOC[C@@H]5C4)ncn3)c2c1` (single isomer, unassigned) [Example 53], for which half-maximal inhibition (IC50) required 7.9 nM.
In the case of `CC(C)(O)C1CN(c2cc(-n3ncc4ccc(C5(C#N)CC6(CC6)C5)cc43)ncn2)C1` [Example 24, 5-(1-(6-(3-(2-hydroxypropan-2-yl)azetidin-1-yl)pyrimidin-4-yl)-1H-indazol-6-yl)spiro[2.3]hexane-5-carbonitrile] it was 2.6 nM.
